Tested on: HepG2 viability, CellTiter-Glo ATP luminescence, 72 h
Assay: viability loss in human hepatoma cells – cell-based, CellTiter-Glo luminescence, cherry-pick, set 2, cytotoxicity control, dose response (AID 743395)

| Structure (SMILES) | AC35 [µM] |
| --- | --- |
| CCOc1ccc(C(=O)O/N=C(\N)c2ccccn2)cc1 | 16.5 |
| O=C(Nc1ccc(Br)cn1)c1cccc2ccccc12 | 5.99 |
| CC(=O)Oc1c(C)cc(Cl)cc1C(=O)Nc1ccc([N+](=O)[O-])cc1Cl | 0.712 |
| Cc1ccc(COc2ccccc2-c2cc(C(=O)N/N=C/c3cccnc3)[nH]n2)cc1 | 14.7 |
| COc1nc(-c2ccccc2)cc(-c2ccc3c(c2)OCO3)c1C#N | 8.32 |
| CNc1c2cccc(C)c2nc2c(C(=O)NCCN(C)C)cccc12 | 0.428 |
| CC(C)(C)c1ccc(OCC(=O)Nc2ccc3c4c(cccc24)C(=O)NC3=O)cc1 | 18.5 |
| COc1ccc(-c2cc(C(F)F)n3ncc(C(=O)N4CCc5ccccc54)c3n2)cc1 | 9.81 |
| OC[C@@H]1CN(Cc2ccc(-c3ccccc3)cc2)C[C@H](n2cnc3c(NC4CC4)ncnc32)O1 | 19.3 |
| Nc1ccc2c3c(cccc13)C(=O)N(c1ccccc1)C2=O | 10.7 |
| COc1ccc(S(=O)(=O)Nc2ccc3c(c2)C(=O)N([C@H](C)CO)C[C@@H](C)[C@@H](CN(C)Cc2ccc(Cl)c(Cl)c2)O3)cc1 | 14.1 |
| O=C1OCC2=C1C(c1ccc3c(c1)OCO3)c1cc3c(cc1O2)OCO3 (configuration not stated) | 3.26 |
| CN1c2ccc(-c3ccc(F)cc3)cc2[C@H]2[C@H](CCN2S(=O)(=O)c2cccc(F)c2)[C@H]1CO | 17.2 |
| CC(=O)N1CCc2cc(S(=O)(=O)N3c4ccccc4CC3C)ccc21 (configuration not stated) | 10.2 |
| Cc1cnc(NC(=O)c2ccc3c(c2)OCCO3)s1 | 4.22 |
| Nc1ccn([C@@H]2O[C@H](CO)[C@@H](O)[C@@H]2O)c(=O)n1 | 7.89 |
| COc1ccc(C(=O)c2ccc(N(C)C)cc2)c(OC)c1 | 14.9 |
| CNc1ccc2c3c(cccc13)C(=O)N(C)C2=O | 15.7 |
| CCc1nc(N)nc(N)c1-c1ccc(Cl)c([N+](=O)[O-])c1 | 0.276 |
| COc1cccc(N=Nc2ccc3cccnc3c2O)c1 | 4.42 |
| N=C1/C(=C/c2cccn2CCOc2ccccc2)C(=O)N=C2SC=C(c3ccccc3)N12 | 19.3 |
| c1ccc2c(c1)C1=NCCN1c1ccccc1-2 | 3.01 |
| C[C@H]1CN([C@@H](C)CO)S(=O)(=O)c2ccc(-c3ccc(C#N)cc3)cc2O[C@@H]1CN(C)Cc1ccccn1 | 5.26 |
| COc1ccc(CCNc2c3ccccc3nc3ccccc23)cc1OC | 6.93 |
| COc1ccccc1Nc1c2c(nc3ccccc13)CCC2 | 7.12 |
| Cn1nccc1C(=O)N/N=C/c1c(O)ccc2ccccc12 | 4.13 |

| Structure (SMILES) | AC35 [µM] |
| --- | --- |
| O=C(NCc1ccccc1)C1Cc2c(-c3ccc(Cl)cc3)ccnc2O1 (configuration not stated) | 9.8 |
| COc1ccc(Nc2nc(-c3sc(C)nc3C)cs2)c(OC)c1 | 10 |
| CC1=C/C(=C\C=C(C#N)C#N)N(C)c2ccccc21 | 21.3 |
| CN1C(=CC=C2C=C(I)C(=O)C(I)=C2)C(C)(C)c2ccccc21 | 3.56 |
| COc1c(O)cc2c(c1OC)-c1ccc(OC)c(=O)cc1C(NC(C)=O)CC2 (configuration not stated) | 0.453 |
| COc1ccc(C(=O)OCC(=O)N2C(C)CCCC2C)cc1S(=O)(=O)N1CCOCC1 (configuration not stated) | 18.7 |
| CCN(Cc1ccccc1)c1ccc(/C=N/N=C(N)N)cc1 | 6.82 |
| CCc1cc(-c2nnn(CCC3COCCO3)c2CC)ccc1-c1cn(Cc2ccc3ccccc3c2)nn1 (configuration not stated) | 15.8 |
| Cc1ccc(S(=O)(=O)N2CCCCC2CCNC(=O)C(=O)NCc2ccccc2)cc1 (configuration not stated) | 12.5 |
| CCC(=O)NC(c1ccc(C)cc1)c1ccc2cccnc2c1O (configuration not stated) | 1.42 |
| COc1ccc(COc2cc(-c3cccc(OC)c3)nc3ccc(NC(=O)c4ccc(OC)cc4)cc23)cc1 | 7.56 |
| COc1cc(C(=O)Nc2ccc3c(c2)CCN3C(C)=O)cc(OC)c1OC | 3.94 |
| CCc1ccc(OCc2n[nH]c(=S)n2C(C)CCCC(C)C)cc1 (configuration not stated) | 13.9 |
| Cc1ccc(CNC(=O)c2ccc3c(=O)c(O)c(-c4ccc(C)cc4)[nH]c3c2)cc1 | 1.9 |
| COC(=O)/C=C/c1ccccc1S(=O)(=O)N(Cc1ccccc1)Cc1ccco1 | 15.4 |
| O=C(Cc1ccccc1)N1CC(=O)N2[C@H](CO)[C@@H](c3ccc(-c4ccccc4)cc3)[C@@H]2C1 | 18.7 |
| Cc1ccc(S(=O)(=O)NCCCNS(=O)(=O)c2ccc(C)cc2)cc1 | 20 |
| C[C@H]1CN([C@@H](C)CO)S(=O)(=O)c2ccc(C#CC3CCCCC3)cc2O[C@H]1CN(C)Cc1cccnc1 | 22.2 |
| CC1=NN(c2ccccc2)C(=O)C1N=Nc1cccc(O)c1 (configuration not stated) | 19 |
| Cc1cccc(N2CCN(Cc3cn(C)nc3-c3ccccc3F)CC2)n1 | 3.97 |
| CC(=O)NC(c1ccc(Cl)cc1Cl)c1ccc2cccnc2c1O (configuration not stated) | 0.921 |
| COc1ccc(C2C3=C(COC3=O)Oc3cc4c(cc32)OCO4)cc1OC (configuration not stated) | 10.9 |
| Cc1ccc(/C=N/NC(=O)c2c(-c3ccccc3)noc2C)c(O)c1 | 18.4 |
| COc1cccc(S(=O)(=O)N2C[C@@H]3N[C@H](C2)C3c2ccc(-c3ccccc3F)cc2)c1 (some centres not stated) | 11.3 |
| Cc1ccccc1S(=O)(=O)N1C[C@@H]2N[C@H](C1)C2c1ccc(-c2cccc(C#N)c2)cc1 (some centres not stated) | 9.94 |
| COc1cc(C#Cc2ccc3cc(CCCO)oc(=O)c3c2)cc(OC)c1 | 6.25 |
